Source: patent publication US20230277524A1, “COMBINATION THERAPY FOR TREATMENT OF VIRAL INFECTIONS” (priority 2020, published 2023)
Entries after “also recorded” stand apart in the source; their conditions may differ. Read-outs that look alike come from different tables or passages of the source.

Assays:
SARS-CoV-2 virus [1] = assay type: cell-based
SARS-CoV-2 virus [2] = assay: microbe, parasite or virus in culture; assay type: cell-based; settings: Severe acute respiratory syndrome coronavirus 2, 72 h; Vero E6-WT cells, three days post-infection; read-out: EC50 for % inhibition of virus-induced CPE
SARS-CoV-2 virus [3] = assay: microbe, parasite or virus in culture; assay type: cell-based
SARS-CoV-2 = assay: Cell-based antiviral assay (CPE, MTS) in Huh7 cells; settings: Huh7, 0.0062 μM concentration level, 4 days post-infection
ABCB1 = settings: low-nM dual-specificity ABCB1/ABCG2 inhibitor; cited from earlier work
[4] = plate 3, 12 drugs, 250 nM, day 4, MLR model (FIG. 2)
[5] = 250 nM, day 4 (FIG. 3, P3 TOX 250 nM)

## C[C@H]1CCC/C=C/[C@@H]2C[C@H](O)C[C@H]2[C@H](O)/C=C/C(=O)O1 [BrefA, Brefeldin A]
VERO-EGFP cells; twelve-drug plate, scanned 4 days later (FIG. 10)
  toxicity (loss of fluorescence intensity, cell loss): cytotoxic and the cause of the observed cell loss

## Cc1c(O)c(=O)ccn1C [Deferiprone]
SARS-CoV-2 virus [1]
  complementing the REC combination or substituting for curcumin: failed to complement the REC combination or substitute for curcumin

## O=c1nc(NO)ccn1[C@@H]1O[C@H](CO)[C@@H](O)[C@H]1O [EIDD-1931]
SARS-CoV-2 virus [1]
  enhancement of / effect on the REC combination: had no effect on the REC combination
SARS-CoV-2 virus [1]; focus testing (FIGS. 13-18)
  substitution for remdesivir in the REC combination: failed to substitute for remdesivir
SARS-CoV-2 virus [1]; focus testing (FIGS. 13-18), listed as EIDD1931
  substitution for remdesivir in the REC combination: none were able to substitute for remdesivir
SARS-CoV-2 virus [1]; listed as EIDD1
  individual antiviral efficacy against SARS-CoV2: does not exert an antiviral effect
SARS-CoV-2 virus [1]; listed as EIDD1931
  individual antiviral efficacy against SARS-CoV2: did not provide evidence for efficacy

## CC(C)C(=O)OC[C@H]1O[C@@H](n2cc/c(=N\O)[nH]c2=O)[C@H](O)[C@@H]1O [EIDD-2801]
SARS-CoV-2 virus [1]
  substitution for remdesivir in the REC combination: failed as a substitute for remdesivir; also recorded: none were able to substitute for remdesivir

## N#C[C@@]1(c2ccc3c(N)ncnn23)O[C@H](CO)[C@@H](O)[C@H]1O [GS441524]
SARS-CoV-2 virus [1]
  individual antiviral efficacy against SARS-CoV2: smaller, yet significant, antiviral effect
  substitution for remdesivir in the REC combination: did not replace remdesivir in the REC combination; also recorded: failed to substitute for remdesivir
SARS-CoV-2 virus [1]; system optimization
  criticality when optimized for maximal cytopathic effect: failed to demonstrate criticality

## Cc1sc2c(c1C)C(c1ccc(Cl)cc1)=N[C@@H](CC(=O)OC(C)(C)C)c1nnc(C)n1-2 [JQ-1]
SARS-CoV-2 virus [1]
  enhancement of / effect on the REC combination: none of the compounds synergized with the REC combination

## COc1ccc2c3c([nH]c2c1)[C@H](CC(C)C)N1C(=O)[C@H](CCC(=O)OC(C)(C)C)NC(=O)[C@@H]1C3 [Ko143]
SARS-CoV-2 virus [1]; focus testing, REC combination at 250 nM (FIGS. 11, 12, 17)
  substitution / complementation for elacridar in the REC combination: failed to complement for elacridar
SARS-CoV-2 virus [1]; focus testing, REC combination at 250 nM (FIGS. 11, 12, 17), listed as K0143
  substitution / complementation for elacridar in the REC combination: cannot substitute for elacridar

## CC(=O)N[C@@H](CS)C(=O)O [N-acetyl cysteine]
SARS-CoV-2 virus [1]
  complementing the REC combination or substituting for curcumin: failed to complement the REC combination, or substitute for curcumin

## CCOC/C=C/c1ccc(-c2nc(-c3ccc(NC(C)C)cc3)c(-c3ccc(NC(C)C)cc3)[nH]2)cc1 [ONT-093]
SARS-CoV-2 virus [1]
  substitution / complementation for elacridar in the REC combination: failed to complement

## CC(C)[C@H](NC(=O)c1ccc2ccccc2n1)C(=O)N[C@@H](CC(=O)O)C(=O)COc1c(F)cccc1F [Q-VD-Oph]
SARS-CoV-2 virus [1]
  enhancement of / effect on the REC combination: none of the compounds synergized with the REC combination

## O=c1c(O)c(-c2ccc(O)c(O)c2)oc2cc(O)cc(O)c12 [Quercetin]
SARS-CoV-2 virus [1]
  substitution / complementation for elacridar in the REC combination: failed to complement for elacridar

## Nc1nc(Nc2ccc3c(c2)CCC(N2CCCC2)CC3)nn1-c1cc2c(nn1)-c1ccccc1CCC2 (centres unmarked) [R428]
SARS-CoV-2 virus [1]
  enhancement of / effect on the REC combination: all failed to enhance the REC combination

## CN(C)C(=O)COC(=O)Cc1ccc(OC(=O)c2ccc(NC(=N)N)cc2)cc1 [camostat]
SARS-CoV-2 virus [1]
  individual antiviral efficacy against SARS-CoV2: did not provide evidence for efficacy
SARS-CoV-2 virus [1]; [4]
  antiviral response (survival of the cells in response to the SARS-CoV-2 virus): negatively impacted the survival of the cells

## Cc1cc(C)c(Nc2ccnc(Nc3ccc(C#N)cc3)n2)c(C)c1 [dapivirine]
SARS-CoV-2 virus [1]
  enhancement of / effect on the REC combination: all failed to enhance the REC combination

## COc1cc2c(cc1OC)CN(CCc1ccc(NC(=O)c3cccc4c(=O)c5cccc(OC)c5[nH]c34)cc1)CC2 [elacridar]
SARS-CoV-2 virus [1]; [4]
  antiviral response (survival of the cells in response to the SARS-CoV-2 virus): antiviral response was demonstrated
SARS-CoV-2 virus [2]
  EC50: 1070 ± 500 nM
SARS-CoV-2 virus [3]; Severe acute respiratory syndrome coronavirus 2, 72 h, Vero E6-GFP cells, three days post-infection, read-out: EC50 for % inhibition of virus-induced CPE
  EC50: 2160 ± 500 nM
VERO-EGFP cells; [5]
  toxicology (cell viability without virus): none of the three drugs in the triad of remdesivir, elacridar, and curcumin negatively impacted cell viability

## NC(=O)c1nc(F)c[nH]c1=O [favipiravir]
SARS-CoV-2 virus [1]
  enhancement of / effect on the REC combination: had no effect on the efficacy of the remdesivir, elacridar, and curcumin combination
  individual antiviral efficacy against SARS-CoV2: failed to emerge as efficacious
  substitution for remdesivir in the REC combination: none were able to substitute for remdesivir

## Cc1nc(-c2ccc(OCC(C)C)c(C#N)c2)sc1C(=O)O [febuxostat]
SARS-CoV-2 virus [1]
  substitution / complementation for elacridar in the REC combination: cannot substitute for elacridar; also recorded: failed to complement

## CN1CC[C@H](c2c(O)cc(O)c3c(=O)cc(-c4ccccc4Cl)oc23)[C@H](O)C1 [flavopiridol]
SARS-CoV-2 virus [1]
  interaction terms / synergism in antiviral response: did not interact significantly with the other three compounds
SARS-CoV-2 virus [1]; [4]
  antiviral response (survival of the cells in response to the SARS-CoV-2 virus): antiviral response was demonstrated
VERO-EGFP cells
  toxicology (cytotoxicity without virus): cytotoxic
VERO-EGFP cells; [5]
  toxicology (cell viability without virus): highly toxic to the Vero-EGFP cells
VERO-EGFP cells; 250 nM, day 4 (FIG. 3, P3 TOX 250 nM), listed as Flavopiridol
  toxicology (cell viability without virus): individually caused cell death

## Nc1ncnc2c([C@@H]3N[C@H](CO)[C@@H](O)[C@H]3O)c[nH]c12 [galidesivir]
SARS-CoV-2 virus [1]
  contribution factor to the effect of the REC combination: 9.6

## CCN(CCO)CCCC(C)Nc1ccnc2cc(Cl)ccc12 (centres unmarked) [hydroxychloroquine]
SARS-CoV-2 virus [1]
  enhancement of / effect on the REC combination: all failed to enhance the REC combination
  individual antiviral efficacy against SARS-CoV2: failed to emerge as efficacious

## CCCCC1=NC2(CCCC2)C(=O)N1Cc1ccc(-c2ccccc2-c2nnn[nH]2)cc1 [irbesartan]
SARS-CoV-2 virus [1]
  individual antiviral efficacy against SARS-CoV2: did not provide evidence for efficacy
SARS-CoV-2 virus [1]; [4]
  antiviral response (survival of the cells in response to the SARS-CoV-2 virus): negatively impacted the survival of the cells

## Cc1cccc(C)c1OCC(=O)N[C@@H](Cc1ccccc1)[C@@H](O)C[C@H](Cc1ccccc1)NC(=O)[C@H](C(C)C)N1CCCNC1=O [lopinavir]
SARS-CoV-2 virus [1]
  individual antiviral efficacy against SARS-CoV2: did not provide evidence for efficacy

## OC(c1cc(C(F)(F)F)nc2c(C(F)(F)F)cccc12)C1CCCCN1 (centres unmarked) [mefloquine]
SARS-CoV-2 virus [1]
  enhancement of / effect on the REC combination: all failed to enhance the REC combination
  individual antiviral efficacy against SARS-CoV2: did not provide evidence for efficacy

## Cc1c(O)cccc1C(=O)N[C@@H](CSc1ccccc1)[C@H](O)CN1C[C@H]2CCCC[C@H]2C[C@H]1C(=O)NC(C)(C)C [nelfinavir]
SARS-CoV-2 virus [1]
  enhancement of / effect on the REC combination: all failed to enhance the REC combination

## CCC(CC)COC(=O)[C@H](C)N[P@](=O)(OC[C@H]1O[C@@](C#N)(c2ccc3c(N)ncnn23)[C@H](O)[C@@H]1O)Oc1ccccc1 [remdesivir]
SARS-CoV-2 virus [1]
  antiviral response (survival of the cells in response to the SARS-CoV-2 virus): antiviral response was demonstrated
SARS-CoV-2
  cytopathic effect of the virus at one concentration: minimally protected
SARS-CoV-2 virus [3]; Vero E6-GFP, 1.11 μM
  inhibition of virus-induced cytopathic effect: 50-60%
VERO-EGFP cells
  toxicology (cell viability without virus): none of the three drugs in the triad of remdesivir, elacridar, and curcumin negatively impacted cell viability
  toxicology (cytotoxicity without virus): no cytotoxicity

## CC(N)C12CC3CC(CC(C3)C1)C2 (centres unmarked) [rimantadine]
SARS-CoV-2 virus [1]
  individual antiviral efficacy against SARS-CoV2: did not provide evidence for efficacy

## CC(C)c1nc(CN(C)C(=O)N[C@H](C(=O)N[C@@H](Cc2ccccc2)C[C@H](O)[C@H](Cc2ccccc2)NC(=O)OCc2cncs2)C(C)C)cs1 [ritonavir]
SARS-CoV-2 virus [1]
  individual antiviral efficacy against SARS-CoV2: did not provide evidence for efficacy

## COc1cc2c(cc1OC)CN(CCc1ccc(NC(=O)c3cc(OC)c(OC)cc3NC(=O)c3cnc4ccccc4c3)cc1)CC2 [tariquidar]
SARS-CoV-2 virus [1]
  antiviral potency in synergizing with remdesivir (interaction terms): equally potent in synergizing with remdesivir
  substitution / complementation for elacridar in the REC combination: can be substituted for elacridar
ABCB1
  ABCB1 inhibitory potency: 5.1 nM

## C=C1CC[C@H](O)C/C1=C/C=C1\CCC[C@]2(C)[C@@H]([C@H](C)CCCC(C)C)CC[C@@H]12 [vit-D3]
SARS-CoV-2 virus [1]
  enhancement of / effect on the REC combination: failed to enhance the REC combination

## [Zn] [zinc]
SARS-CoV-2 virus [1]
  enhancement of / effect on the REC combination: failed to enhance the REC combination

## Z-VAD
SARS-CoV-2 virus [1]
  enhancement of / effect on the REC combination: none of the compounds synergized with the REC combination

## ivermectin
SARS-CoV-2 virus [1]
  enhancement of / effect on the REC combination: unable to enhance the REC combination
  individual antiviral efficacy against SARS-CoV2: individual, but limited potency
